Assay results published in publication PMC7142633, “Impact of B-Ring Substitution and Acylation with Hydroxy Cinnamic Acids on the Inhibition of Porcine α-Amylase by Anthocyanin-3-Glycosides” (Foods, 2020).
Where two headings read alike, the source gives them in different places. Marks after values point to notes of the source that are not given here.

Experiments:
human salivary α-amylase = target: human salivary α-amylase; design: method as in PMID 26471548; settings: cited from earlier work
[1] = target: T1, α-amylase from porcine pancreas (Sus scrofa, UniProt P00690); assay: α-amylase enzyme activity assay, GalG2CNP conversion, UV/Vis detection of CNP at 405 nm; assay type: biochemical; settings: for IC50: read-out: IC50 (Cheng−Prussoff, Equation (9)); for Kmapp / vmaxapp: Michaelis Menten fit
T1 construct: A saline suspension of α-amylase from porcine pancreas; purchased Sigma Aldrich (Steinheim, Germany) Lot #SLBN9170V (catalogue number not given); host or cells: porcine pancreas (tissue-derived)
T1 sequence (P00690 16-511): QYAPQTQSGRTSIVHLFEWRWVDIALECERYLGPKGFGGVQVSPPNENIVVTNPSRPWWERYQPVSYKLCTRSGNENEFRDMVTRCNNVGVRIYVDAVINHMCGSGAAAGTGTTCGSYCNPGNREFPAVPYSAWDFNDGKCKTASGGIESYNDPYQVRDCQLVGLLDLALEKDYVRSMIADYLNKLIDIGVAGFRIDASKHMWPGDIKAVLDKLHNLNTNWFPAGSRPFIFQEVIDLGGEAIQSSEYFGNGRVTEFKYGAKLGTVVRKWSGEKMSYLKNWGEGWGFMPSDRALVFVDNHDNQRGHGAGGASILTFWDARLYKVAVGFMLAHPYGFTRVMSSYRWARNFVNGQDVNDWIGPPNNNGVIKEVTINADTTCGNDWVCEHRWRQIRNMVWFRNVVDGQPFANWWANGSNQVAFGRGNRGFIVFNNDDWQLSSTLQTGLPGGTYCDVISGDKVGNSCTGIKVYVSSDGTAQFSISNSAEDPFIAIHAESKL
Procedure: The enzyme activity assay, […], was established by Homoki and co-workers and already used by the authors to evaluate the inhibitory strength of different phenolic structures. To enable the evaluation of the result obtained in the present study compared to the non-anthocyanin phenolics investigated previously, the assay conditions were identical. In short, to 12 different GalG2CNP concentrations ([S] = 0−2000 µM) in MES^+ buffer, inhibitor [I] and 50 µL enzyme solution (c = 1.51 units/~100 pM, on the basis of supplier information) were mixed in a microtiter plate (Greiner BioOne, Frickenhausen, Germany; transparent, F-bottom). For blanks, the enzyme solution was substituted with MES^+ buffer. The final volume per well was 250 µL. To quantify the reaction product, a linear calibration with eight different CNP concentrations in the range of 0−35 µM was performed for each plate. Dilutions of the anthocyanin stock solutions (0.1% HCl) were equilibrated at pH 6.1 for one hour. Final inhibitor concentrations were limited due to its strong absorption at 405 nm to 12.5, 25, and 50 µM. For each anthocyanin structure, the assay was conducted on two to three different days with freshly prepared stocks of substrate, enzyme, and inhibitor.
In addition to the Michaelis Menten constant (Km) and the maximal conversion rate (vmax) values (Table S1), inhibition constants (Kic, Kiu) were calculated by fitting the data by two approaches: (i) According to the mixed inhibition equation (Equation (4)) or competitive inhibition equation (Equation (5)), applying an optimal global fit containing data from all inhibitor concentrations including the control ([I] = 0 µM); and (ii) by an independent fit according to the Michaelis Menten equation (Equation (6)), providing the apparent values Km^app and Vmax^app (Table S2) for each inhibitor concentration, which were then used to calculate the inhibition constants (Equations (7) and (8)). (4) v0= vmax/Km/[S] · (1+[I]/Kic)+(1+[I]/Kiu), (5) v0=vmax/Km/[S] · ( 1+[I]/Kic)+1, (6) v0=vmax · [S]/Km+[S], (7) Kic=vmax^app/Km^app · [I]/vmax/Km−vmax^app/Km^app, (8) Kiu=vmax^app · [I]/vmax− vmax^app.
The IC50 values of the different anthocyanins were derived from the inhibition constants for different substrate concentrations by the Cheng−Prusoff equation (Equation (9)). (9) IC50=(Km+[S])/Km/Kic+[S]/Kiu.
• KM: Michaelis Menten constant (µM) • vmax: Maximal conversion rate of the uninhibited reaction (µM/min) • v0: Observed conversion rate at given substrate and inhibitor concentration (µM/min) • [S]: Substrate concentration • [I]: Inhibitor concentration • Kic: Inhibitor constant, reflecting the competitive inhibition in the equation (µM) • Kiu: Inhibitor constant, reflecting the uncompetitive inhibition in the equation (µM) • vmax^app: Calculated maximal conversion rate, when the Michaelis Menten equation is used on an inhibited curve (µM/min) • Km^app: Calculated Michaelis Menten constant, when the Michaelis Menten equation is used on an inhibited curve (µM) • IC50: Half maximal inhibitory concentration (inhibitor concentration needed to achieve 50% inhibition; it is dependent on the substrate concentration) (µM)
For data analyses and calculations, Origin 2018b (OriginLab, software extension Enzyme Kinetics) was used. The Levenberg−Marquardt algorithm procedure was chosen for iteration. All assays were performed in two independent replicates at different dates. Values are expressed in arithmetic means ± average deviation (AD). The statistical significance and differences between groups were analyzed by one-way analysis of variance (ANOVA), followed by Tukey’s test. Differences were considered significant when p < 0.05. Data were processed using Microsoft Excel® (2010).

[2] = aqueous solution; cited from earlier work
[3] = target: porcine pancreatic α-amylase; design: method as in doi:10.1016/j.jff.2015.11.042; settings: cited from earlier work
[4] = target: T1, α-amylase from porcine pancreas; assay: Isothermal titration calorimetry, single injection, GalG2CNP conversion; assay type: biochemical; settings: 100 µM inhibitor, 0.95 mM substrate, 37 °C
Procedure: To evaluate the inhibitory strength of 100 µM anthocyanin-3-glucosides and black carrot anthocyanins, GalG2CNP conversion to CNP was monitored by the released heat. According to the previous study, ITC measurements were carried out in a single injection experiment set-up on a MICROCALTM PEAQ-ITC calorimeter (S/N MAL1188053, Malvern Panalytical Almelo, Netherlands). Following an equilibration time of 10 min, 1 µL α-amylase (1 µM in 50 mM MES^+ buffer) was added to 0.95 mM of the substrate with or without 100 µM of the phenolic inhibitor in the cell (Vcell = 0.207 mL). The temperature was maintained at 37 °C and the sample was stirred at 750 rpm throughout. The feedback/gain mode was set to high. The resulting heat profile was transformed and the conversion rate was plotted against the substrate concentration [S] by an origin routine template provided by Malvern® for Origin version 7.

[5] = (i) Kic and Kiu by global fit, [S] 10 µM
[6] = (i) Kic and Kiu by global fit, [S] 100 µM
[7] = (i) Kic and Kiu by global fit, [S] 10^3 µM
[8] = (i) Kic and Kiu by global fit, [S] 10^6 µM
[9] = (i) global fit, mixed inhibition Equation (4), read-out: Kic
[10] = (i) global fit, mixed inhibition Equation (4), read-out: Kiu
[11] = (ii) Kic and Kiu by independent fit, [S] 10 µM
[12] = (ii) Kic and Kiu by independent fit, [S] 100 µM
[13] = (ii) Kic and Kiu by independent fit, [S] 10^3 µM
[14] = (ii) Kic and Kiu by independent fit, [S] 10^6 µM
[15] = (ii) independent Michaelis Menten fit (Equation (6)), calculation by Equation (7), read-out: Kic
[16] = (ii) independent Michaelis Menten fit (Equation (6)), calculation by Equation (8), read-out: Kiu
[17] = (ii) independent fit, Equations (7) and (8)
[18] = from apparent values, inhibitor c 25 µM, read-out: Kic
[19] = from apparent values, inhibitor c 25 µM, read-out: Kiu
[20] = from apparent values, inhibitor c 50 µM, read-out: Kic
[21] = from apparent values, inhibitor c 50 µM, read-out: Kiu
[22] = from apparent values, inhibitor c 12,5 µM, read-out: Kic
[23] = from apparent values, inhibitor c 12,5 µM, read-out: Kiu

| SMILES | IC50 [1, 5] [µM] | IC50 [1, 6] [µM] | IC50 [1, 7] [µM] | Kic/Kiu ([1]; (i) global fit, Equation (4)) | Ki [1, 9] [µM] | Ki [1, 10] [µM] | IC50 [1, 11] [µM] | IC50 [1, 12] [µM] | IC50 [1, 13] [µM] | IC50 [1, 14] [µM] | Ki [1, 15] [µM] | Ki [1, 16] [µM] | Kic/Kiu [1, 17] | Kmapp ([1]; inhibitor c 25 µM) [µM] | vmaxapp ([1]; inhibitor c 25 µM) | Kmapp ([1]; inhibitor c 50 µM) [µM] | vmaxapp ([1]; inhibitor c 50 µM) | Kmapp ([1]; inhibitor c 12,5 µM) [µM] | vmaxapp ([1]; inhibitor c 12,5 µM) | Ki [1, 18] [µM] | other results |
| --- | --- | --- | --- | --- | --- | --- | --- | --- | --- | --- | --- | --- | --- | --- | --- | --- | --- | --- | --- | --- | --- |
| OC[C@H]1O[C@@H](Oc2cc3c(O)cc(O)cc3[o+]c2-c2ccc(O)c(O)c2)[C@H](O)[C@@H](O)[C@@H]1O [Cyd-glc, cyanidin-3-glucoside] | 83 ± 11 | 97 ± 15 | 147 ± 36 | 0.45 ± 0.08 ***^a | 81 ± 10 | 184 ± 56 | 137 | 153 | 201 | 228 | 134 | 228 | 0.56 *^a | 285 | 0,74 ± 0,26 µM/min | 300 | 0,69 ± 0,21 µM/min | 244 | 0,79 ± 0,23 µM/min | 64 | IC50 (human salivary α-amylase): 180 ± 20 µM; inhibition type (human salivary α-amylase): competitive inhibition type; IC50 [1, 8]: 184 ± 56 µM; Ki [1, 19]: 141 µM; Ki [1, 20]: 103 µM; Ki [1, 21]: 250 µM; Ki [1, 22]: 236 µM; Ki [1, 23]: 146 µM; Ki ([1]; mean over inhibitor c 12,5, 25, 50 µM (Supplementary 2), read-out: Kiu mean ± SD): 179 ± 62 µM; pKH [2]: 3.02 ± 0.06; IC50 [3]: 24 ± 3 µM; inhibition type [3]: competitive inhibition type |
| OC[C@H]1O[C@@H](Oc2cc3c(O)cc(O)cc3[o+]c2-c2cc(O)c(O)c(O)c2)[C@H](O)[C@@H](O)[C@@H]1O [Dpd-glc, delphinidin-3-glucoside] | 64 ± 25 | 77 ± 25 | 134 ± 1 | 0.34 ± 0.24 ^a | 62 ± 25 | 204 ± 68 | 65 ± 20 | 83 ± 24 | 167 ± 20 | 270 ± 32 | 63 ± 19 | 270 ± 33 | 0.26 ± 0.13 ^a | 273 ± 52 | 0,79 ± 0,09 µM/min | 335 ± 129 | 0,69 ± 0,03 µM/min | 247 ± 33 | 0,84 ± 0,10 µM/min | 63 ± 17 | Ki [1, 19]: 233 ± 25 µM; Ki [1, 20]: 60 ± 27 µM; Ki [1, 21]: 212 ± 87 µM; Ki [1, 22]: 66 ± 14 µM; Ki [1, 23]: 364 ± 13 µM; Ki ([1]; mean over inhibitor c 12,5, 25, 50 µM (Supplementary 2), read-out: Kic mean ± SD): 63 ± 3 µM; pKH [2]: 2.36 ± 0.05; inhibitory strength by ITC (thermogram, Michaelis Menten plot) [4]: Mlv-3-glc > Cyd-3-glc > Dpd-3-glc~Peo-3-glc |
| OC[C@H]1O[C@@H](Oc2cc3c(O)cc(O)cc3[o+]c2-c2ccc(O)cc2)[C@H](O)[C@@H](O)[C@@H]1O [Plg-glc, pelargonidin-3-glucoside] | 58 ± 15 | 71 ± 20 | 117 ± 41 | 0.39 ± 0.05 ^a | 57 ± 15 | 151 ± 59 | 71 ± 2 | 84 ± 7 | 127 ± 31 | 158 ± 53 | 69 ± 1 | 158 ± 53 | 0.46 ± 0.13 ^a | 258 ± 13 | 0,58 ± 0,22 µM/min | 325 ± 42 | 0,53 ± 0,23 µM/min | 235 ± 2 | 0,65 ± 0,23 µM/min | 62 ± 7 | IC50 [1, 8]: 151 ± 59 µM; Ki [1, 19]: 126 ± 30 µM; Ki [1, 20]: 55 ± 19 µM; Ki [1, 21]: 163 ± 64 µM; Ki [1, 22]: 91 ± 22 µM; Ki [1, 23]: 187 ± 64 µM; pKH [2]: 2.98 ± 0.06 |
